Paper PMC9560169, “The novel visual cycle inhibitor (±)-RPE65-61 protects retinal photoreceptors from light-induced degeneration” (PLoS ONE, 2022)

Molecular target: T1, RPE65 (Gallus gallus, UniProt Q9YGX2)
T1 construct: purified chicken recombinant RPE65
T1 sequence (Q9YGX2 1-533): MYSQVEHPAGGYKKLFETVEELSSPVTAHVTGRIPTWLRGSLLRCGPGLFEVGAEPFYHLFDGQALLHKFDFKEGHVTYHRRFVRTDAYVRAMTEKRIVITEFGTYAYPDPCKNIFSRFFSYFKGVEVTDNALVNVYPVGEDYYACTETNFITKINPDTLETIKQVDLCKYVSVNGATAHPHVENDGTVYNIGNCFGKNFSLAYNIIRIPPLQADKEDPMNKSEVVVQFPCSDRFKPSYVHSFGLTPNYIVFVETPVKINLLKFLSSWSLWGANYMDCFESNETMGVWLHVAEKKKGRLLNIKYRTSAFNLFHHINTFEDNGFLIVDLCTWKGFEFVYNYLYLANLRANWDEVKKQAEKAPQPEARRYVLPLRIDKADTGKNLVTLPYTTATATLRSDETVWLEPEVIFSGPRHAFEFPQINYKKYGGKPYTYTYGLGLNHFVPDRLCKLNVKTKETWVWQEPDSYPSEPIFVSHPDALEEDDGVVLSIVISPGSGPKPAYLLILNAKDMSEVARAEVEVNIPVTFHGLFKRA
Test: liposome-based isomerohydrolase assay with all-trans-retinyl palmitate, HPLC of 11-cis-retinol, Lineweaver-Burk
Assay type: biochemical

Ki: 119 ± 11 nM
Structure (SMILES): N=S(=O)(CCN)c1cccc(OCC2CCCCC2)c1 (racemic) [(±)-9, (±)-(2-aminoethyl)(3-(cyclohexylmethoxy)phenyl)(imino)-ƛ^6-sulfanone]
